We go through 8 compounds from DBAASP.

Converted amounts (≈) assume the structure as drawn.

As usually defined, the MIC is the least concentration at which growth counts as inhibited. Lower therefore signals a more susceptible organism.

Among the test systems are Bacillus cereus AS1.126; Escherichia coli AS1.349; Staphylococcus aureus; Bacillus subtilis 168; Escherichia coli B; Pseudomonas aeruginosa; Escherichia coli BW25113.
Common to all, as to assay: ≥ marks a high value that may be exact or a test limit, other limits are often not marked, values filed in µg/mL are converted to µM
Test [1] relates to Enterococcus faecalis CGMCC 1.595.
The subject of test [2] is Staphylococcus aureus AS1.72.
Test [3] has as its system Pseudomonas aeruginosa CGMCC 1.860.
The test system of test [4] is Lactococcus lactis AS1.1690.
Test [5] deals with Enterococcus faecium CGMCC 1.2334.
Test [6] has as its system Staphylococcus aureus ATCC 6538.
The subject of test [7] is Bacillus subtilis ATCC 6633.
For test [8], the system named is Staphylococcus aureus ATCC 43300.
Test [9] concerns Escherichia coli ATCC 8739.
Test [10] has as its system Micrococcus luteus CCM 144.
Test [11] concerns Candida albicans F7-39/IDE99.
Test [12] has as its system Pseudomonas aeruginosa ATCC 27853.
For test [13], the system named is Staphylococcus epidermidis.
Test [14] deals with Candida albicans ATCC 90028.

As for `CC(C)[C@H](N)C(=O)N[C@@H](Cc1c[nH]c2ccccc12)C(=O)N[C@@H](CCCN=C(N)N)C(=O)N[C@@H](Cc1cnc[nH]1)C(=O)N[C@@H](Cc1c[nH]c2ccccc12)C(=O)O` [VWRHW], the minimum inhibitory concentration (MIC) (in [1]; in [2]; with Bacillus cereus AS1.126; in test [3]; in [4]; in [5]) was no less than 100 µM in each case. This compound registered an MIC against Escherichia coli AS1.349 of no less than 100 µM.
Regarding `CC[C@H](C)[C@H](NC(=O)CN)C(=O)N[C@@H](Cc1ccccc1)C(=O)N[C@@H](CO)C(=O)N[C@@H](CCCCN)C(=O)N[C@@H](Cc1ccccc1)C(=O)N[C@@H](C)C(=O)NCC(=O)N[C@@H](CCCCN)C(=O)NCC(=O)N[C@H](C(=O)N[C@@H](CCCCN)C(=O)N[C@@H](CC(N)=O)C(=O)N[C@@H](CC(C)C)C(=O)N[C@@H](CC(C)C)C(=O)N[C@H](C(=O)N[C@@H](CCCCN)C(=O)NCC(=O)N[C@H](C(=O)N[C@@H](CCCCN)C(=O)N[C@@H](CC(N)=O)C(=O)N[C@H](C(=O)NCC(=O)N[C@@H](CCCCN)C(=O)N[C@@H](CCC(=O)O)C(=O)N[C@H](C(=O)NCC(=O)N[C@@H](CCSC)C(=O)N[C@@H](CC(=O)O)C(=O)N[C@H](C(=O)N[C@H](C(=O)N[C@@H](CCCN=C(N)N)C(=O)N[C@H](C(=O)NCC(=O)N[C@H](C(=O)N[C@@H](CC(=O)O)C(=O)N[C@H](C(=O)N[C@@H](C)C(=O)NCC(=O)N[C@H]1CSSC[C@@H](C(=O)O)NC(=O)[C@H](CCC(=O)O)NC(=O)CNC(=O)[C@H](CCCCN)NC(=O)[C@H]([C@@H](C)CC)NC(=O)[C@H](CCCCN)NC1=O)[C@@H](C)CC)[C@@H](C)CC)[C@@H](C)O)[C@@H](C)CC)C(C)C)C(C)C)[C@@H](C)CC)C(C)C)C(C)C)[C@@H](C)CC` [GIFSKFAGKGIKNLLVKGVKNIGKEVGMDVIRTGIDIAGCKIKGEC], the minimal inhibitory concentration (MIC) in test [6] was found to be 3.1 µM (≈ 14.9 µg/mL); in test [7], 25 µM (≈ 120 µg/mL); in test [8] it was 25 µM (≈ 120 µg/mL); in test [9] it was 6.3 µM (≈ 30.3 µg/mL).
For the compound `CC[C@H](C)[C@H](NC(=O)[C@H](CC(C)C)NC(=O)[C@H](CCCCN)NC(=O)[C@@H](NC(=O)[C@@H](NC(=O)[C@H](CCCCN)NC(=O)[C@@H]1CCCN1C(=O)[C@H](CC(C)C)NC(=O)[C@@H](NC(=O)[C@H](CCCCN)NC(=O)[C@H](C)NC(=O)[C@H](CC(C)C)NC(=O)[C@H](CC(C)C)NC(=O)[C@H](CO)NC(=O)[C@H](C)NC(=O)[C@H](CCSC)NC(=O)CN)C(C)C)C(C)C)C(C)C)C(=O)N[C@@H](CCCCN)C(=O)O` [GMASLLAKVLPKVVKLIK], the MIC in the test with Staphylococcus aureus came to 3.5 µM (≈ 6.68 µg/mL); in test [10], 1.2 µM (≈ 2.29 µg/mL); with Bacillus subtilis 168 it was 3.4 µM (≈ 6.49 µg/mL); in test [11], 12.1 µM (≈ 23.1 µg/mL); against Escherichia coli B, 1.8 µM (≈ 3.44 µg/mL); against Pseudomonas aeruginosa, 47.5 µM (≈ 90.7 µg/mL).
As for `CC[C@H](C)[C@H](NC(=O)CN)C(=O)N[C@@H](CC(C)C)C(=O)N[C@@H](CO)C(=O)N[C@@H](CO)C(=O)N[C@@H](CC(C)C)C(=O)N[C@@H](Cc1c[nH]c2ccccc12)C(=O)N[C@@H](CCCCN)C(=O)N[C@@H](CCCCN)C(=O)N1CCC[C@H]1C(=O)N[C@@H](CCCCN)C(=O)N[C@@H](CCCCN)C(=O)N[C@H](C(=O)N[C@H](C(=O)N[C@@H](C)C(=O)N[C@@H](CCCCN)C(N)=O)[C@@H](C)CC)[C@@H](C)CC` [GILSSLWKKPKKIIAK], the minimal inhibitory concentration (MIC) in the test on Staphylococcus aureus was greater than 100 µM; in test [12], 98 µM (≈ 177 µg/mL); in [10] it was 5.8 µM (≈ 10.5 µg/mL); in test [13], no less than 100 µM; against Bacillus subtilis 168 it was no less than 49 µM; in [8] it was greater than 100 µM. In addition, the results for the MIC (in test [11]; in the test on Escherichia coli B; in the test with Pseudomonas aeruginosa) were no less than 100 µM, no less than 100 µM and greater than 100 µM, respectively.
On to `CC[C@H](C)[C@H](NC(=O)CN)C(=O)N[C@@H](CCSC)C(=O)N[C@@H](CO)C(=O)N[C@@H](CO)C(=O)N[C@@H](CC(C)C)C(=O)N[C@@H](CCSC)C(=O)N[C@@H](CCCCN)C(=O)N[C@@H](CCCCN)C(=O)N[C@@H](CC(C)C)C(=O)N[C@@H](C)C(=O)N[C@@H](C)C(=O)N[C@H](C(=O)N[C@H](C(=O)N[C@@H](C)C(=O)N[C@@H](CCCCN)C(N)=O)[C@@H](C)CC)[C@@H](C)CC` [GIMSSLMKKLAAIIAK], for which the minimal inhibitory concentration (MIC) with Staphylococcus aureus came to 10 µM (≈ 16.7 µg/mL); in test [12], 8 µM (≈ 13.4 µg/mL); in test [10], 3 µM (≈ 5.02 µg/mL); in test [13], 5 µM (≈ 8.37 µg/mL); in the test with Bacillus subtilis 168, 7 µM (≈ 11.7 µg/mL); in test [8], 7.2 µM (≈ 12.1 µg/mL). The MIC in test [11] amounted to 8.4 µM (≈ 14.1 µg/mL); against Escherichia coli B, 3.6 µM (≈ 6.03 µg/mL); in the test on Pseudomonas aeruginosa, 17 µM (≈ 28.5 µg/mL).
As to `CC[C@H](C)[C@H](NC(=O)CN)C(=O)N[C@@H](CC(C)C)C(=O)N[C@@H](CO)C(=O)N[C@H](C(=O)N[C@H](C(=O)N[C@@H](Cc1ccccc1)C(=O)N[C@@H](CCCCN)C(=O)N[C@@H](C)C(=O)NCC(=O)N[C@@H](CCCCN)C(=O)NCC(=O)N[C@H](C(=O)N[C@H](C(=O)N[C@H]1CSSC[C@@H](C(=O)O)NC(=O)[C@H](CC(C)C)NC(=O)CNC(=O)[C@H](CO)NC(=O)[C@H](CC(C)C)NC(=O)CNC1=O)C(C)C)[C@@H](C)CC)C(C)C)[C@@H](C)O` [GILSTVFKAGKGIVCGLSGLC], the MIC in test [6] is 3.1 µM (≈ 6.27 µg/mL); in test [7] it was 12.5 µM (≈ 25.3 µg/mL); in [8] it was 25 µM (≈ 50.5 µg/mL); in test [9] it was no less than 50 µM; in test [14], no less than 100 µM.
With `CC[C@H](C)[C@H](NC(=O)[C@H](C)NC(=O)CNC(=O)[C@H](CCCCN)NC(=O)[C@H](CC(N)=O)NC(=O)[C@@H](N)CC(C)C)C(=O)N[C@@H](CC(C)C)C(=O)N[C@@H](CCCCN)C(=O)N[C@@H](Cc1cnc[nH]1)C(=O)N[C@H](C(=O)N[C@H](C(=O)N[C@@H](CCCCN)C(N)=O)[C@@H](C)CC)[C@@H](C)CC` [LNKGAILKHIIK], the MIC in the test with Staphylococcus aureus is greater than 100 µM; in test [10], no less than 100 µM; in the test with Bacillus subtilis 168, no less than 65 µM; in test [11], no less than 100 µM; with Escherichia coli B, no less than 100 µM; in the test with Pseudomonas aeruginosa, greater than 100 µM.
Regarding `CC[C@H](C)[C@H](NC(=O)[C@@H]1CCCN1C(=O)[C@@H]1CCCN1C(=O)[C@H](CCCN=C(N)N)NC(=O)[C@H](CCCN=C(N)N)NC(=O)[C@H](Cc1c[nH]c2ccccc12)NC(=O)[C@@H]1CCCN1C(=O)[C@@H]1CCCN1C(=O)[C@H](CCCN=C(N)N)NC(=O)[C@H](Cc1ccccc1)NC(=O)[C@@H](N)CCCN=C(N)N)C(=O)N[C@@H](CCCN=C(N)N)C(=O)N1CCC[C@H]1C(=O)N1CCC[C@H]1C(=O)N[C@@H](Cc1ccccc1)C(=O)N[C@@H](Cc1ccc(O)cc1)C(=O)N1CCC[C@H]1C(=O)O` [RFRPPWRRPPIRPPFYP], the MIC in the test with Escherichia coli BW25113 turned out to be 8 µM (≈ 17.9 µg/mL).
